From patent US5082937A, “Benzodiazepines and applications in therapeutic practice” (Jouveinal S.A., priority 1989, dated 1992)
Like-named read-outs stand apart in the source and are kept apart here.

Key:
gastrin receptor [1] = molecular target: T1, gastrin receptor (Cavia porcellus, UniProt H0VZC5); assay: Binding affinity for the gastrin receptor, guinea-pig gastric glands, iodine-125-labelled gastrin
T1 construct: guinea-pig gastric glands; from tissue; host or cells: gastric glands of male guinea pigs (animals from COB LABO)
T1 sequence (H0VZC5 1-426): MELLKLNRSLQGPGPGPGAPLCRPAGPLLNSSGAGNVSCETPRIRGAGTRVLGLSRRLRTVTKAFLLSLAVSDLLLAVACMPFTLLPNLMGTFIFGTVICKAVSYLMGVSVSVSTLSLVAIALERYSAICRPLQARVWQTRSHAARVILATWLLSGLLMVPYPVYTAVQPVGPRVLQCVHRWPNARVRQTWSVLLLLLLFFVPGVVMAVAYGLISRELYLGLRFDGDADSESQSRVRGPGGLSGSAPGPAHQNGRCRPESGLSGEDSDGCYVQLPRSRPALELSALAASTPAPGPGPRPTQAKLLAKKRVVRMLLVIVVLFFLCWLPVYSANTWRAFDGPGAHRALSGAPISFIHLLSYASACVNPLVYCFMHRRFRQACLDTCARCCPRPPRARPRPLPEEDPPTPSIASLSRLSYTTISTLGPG
From the text: (§1) The "in vitro" studies consisted in determining the binding affinity of the compounds of the invention for the cholecystokinin and gastrin receptors.
(§2) The aim of these experiments was to determine the solution concentrations of products of formula (I) which were capable of inhibiting in relation to the receptors in question fifty percent of the cholecystokinin bonds, labelled with […] (abbreviated below as [1251]-CCK8 sulphate) or in the case of the iodine-125-labelled gastrin receptor with the following receptors:
(§3) guinea-pig gastric glands (males, COB LABO, 325-350 g) in accordance with the method described by PRAISSMAN, M., M. E. WALDEN and C. PELLECHIA. Journal of Receptor Research, 1983 3 647-665 (gastrin receptor).
(§4) The unit of measurement is the nanomole.

[2] = molecular target: T2, central cholecystokinin receptor: CCK-B (Cavia porcellus, UniProt H0VZC5); assay: Binding affinity for the central cholecystokinin receptor (CCK B), guinea-pig brain membranes, inhibition of labelled [125I]-CCK8 sulphate binding
T2 construct: guinea-pig brain membranes; from tissue; host or cells: brain membranes of male guinea pigs (animals from COBLABO)
T2 sequence (H0VZC5 1-426): T1 sequence (H0VZC5 1-426)
From the text: (§5) The "in vitro" studies consisted in determining the binding affinity of the compounds of the invention for the cholecystokinin and gastrin receptors. […]
(§6) guinea-pig brain membranes (males, COBLABO, 325-350 g) (central cholecystokinin receptor: CCK-B).
(§7) in accordance with the experimental protocol described by INNIS, R. B. and S. M. SNYDER, Eur. J. Pharmacol., 1980 65 123-124.
as §4

[3] = molecular target: T3, peripheral cholecystokinin receptor: CCK-A (Rattus norvegicus, UniProt P30551); assay: Binding affinity for the peripheral cholecystokinin receptor (CCK A), plasma membranes of the rat pancreas, inhibition of labelled [125I]-CCK8 sulphate binding
T3 construct: plasma membranes of the rat pancreas; from tissue; host or cells: pancreas plasma membranes of male SD rats (animals from IFFA CREDO)
T3 sequence (P30551 1-444): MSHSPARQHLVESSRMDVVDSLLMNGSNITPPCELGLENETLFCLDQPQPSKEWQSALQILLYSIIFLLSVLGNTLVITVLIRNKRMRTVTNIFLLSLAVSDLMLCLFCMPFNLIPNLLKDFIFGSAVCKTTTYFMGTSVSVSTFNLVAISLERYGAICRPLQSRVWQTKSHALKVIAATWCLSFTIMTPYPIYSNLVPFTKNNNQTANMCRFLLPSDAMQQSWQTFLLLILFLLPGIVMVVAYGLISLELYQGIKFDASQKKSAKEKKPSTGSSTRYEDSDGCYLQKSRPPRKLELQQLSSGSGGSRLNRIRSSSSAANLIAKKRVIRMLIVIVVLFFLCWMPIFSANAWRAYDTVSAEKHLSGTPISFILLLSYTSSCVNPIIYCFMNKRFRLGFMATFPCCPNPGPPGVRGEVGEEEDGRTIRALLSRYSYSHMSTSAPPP
From the text: as §1, §2
plasma membranes of the rat pancreas (male SD, rats, IFFA CREDO 200-225 g) (peripheral cholecystokinin receptor: CCK-A),
as §7, §4

[4] = tested on: gastrin-induced acid secretion; assay: Gastrin-induced acid secretion in the rat (chronic gastric fistula, pentagastrin perfusion); assay type: in vivo; conditions: 1 mg/kg oral; for Gastric secretion % inhibition: SD male rat, pentagastrin 6 μg/kg/h i.v.
Description: The activity of the products of the invention in relation to gastrin-induced acid secretion in the rat has been studied by the method described by Pascaud, X. P. , A. R. Roger and M. J. H. Genton. Digestion, […] 16 57-68. The method consists in collecting the gastric acid secretion over two consecutive 2 hour periods in SD male rats (IFFA CREDO 250-300 g), provided with a chronic gastric fistula and continuously perfused i.v. with a pentagastrin solution (Peptavlon, ICI, 6 μg/kg/h). The inhibition of this secretion by the oral administration of 1 mg/kg product of the invention has been determined.

[5] = tested on: gastric evacuation, slowed down by CCK-8 (peripheral receptor CCK-A); assay: Gastric evacuation slowed down by CCK-8 in the mouse; assay type: in vivo; conditions: oral; for ED50: Mus musculus, SWISS male mice, CCK-8 80 μg/kg subcutaneous
Description: The antagonist activity of CCK on the digestive motor effects of the hormone has been examined in relation to the gastric evacuation, slowed down by the subcutaneous administration of CCK-8 (80 μg/kg) in SWISS male mice (IFFA CREDO 16-20 g), using the technique described by Lotti, V. J., D. J. Cerino, P. J. Kling and R. S. L. Chang. Life Sciences, 1986 39, 1631-1638.

[6] = tested on: central cholecystokinin receptor: CCK-B; assay: Binding affinity for the central cholecystokinin receptor (CCK B), guinea-pig brain membranes, inhibition of labelled [125I]-CCK8 sulphate binding; conditions: for Selectivity CCK B/CCK A: IC50 CCK A / IC50 CCK B
From the text: as §5, §6, §7, §4

gastrin receptor [7] = assay: Binding affinity for the gastrin receptor, guinea-pig gastric glands, iodine-125-labelled gastrin; conditions: for Selectivity GASTRIN/CCK A: IC50 CCK A / IC50 gastrin
From the text: as §1, §2, §3, §4

[8] = tested on: A receptors of cholecystokinin; conditions: published, in vitro; cited from earlier work
gastrin receptors = conditions: published, in vitro, cited from earlier work
[9] = guinea-pig gastric glands; Table I; read-out: IC50 Receptor bond Gastrin
[10] = guinea-pig brain membranes; Table I; read-out: IC50 Receptor bond CCK B
[11] = in comparison with compound XXa

| Compound | IC50 (gastrin receptor [1]; [9]) | IC50 [2, 10] | IC50 [3] | times less active on the gastrin receptor than XXa (gastrin receptor [1]; [11]) | also measured |
| --- | --- | --- | --- | --- | --- |
| Cc1cccc(NC(=O)NC2N=C(c3ccccc3)c3cccc4c3N(CC4)C2=O)c1 (racemic) [Example 1, (4R,S)-N-(keto-3-phenyl-6-tetrahydro-1,2,3,4-pyrrolo[3,2,1-j,k]benzodiazepine[1,4]-yl-4)-N'-(methyl-3-phenyl-)-urea] | 0.0144 µM | 0.431 µM | 0.0596 µM |  |  |
| Cc1cccc(NC(=O)NC2N=C(c3ccccc3)c3cccc4c3N(CCC4)C2=O)c1 (racemic) [Example 5, (5R,S)-N-(keto-4-phenyl-7-hexahydro-1,2,3,3a,4,5-pyrido [3,2,1-j,k]benzodiazepine-[1,4]-yl-5)-N'-(methyl-3-phenyl-)-urea] | 0.0015 µM | 0.251 µM | 0.0842 µM | 3 times | activity compared with reference compound XXa (gastrin-specific compounds) (gastrin receptor [1]; in words): similar |
| O=C(Nc1ccc([N+](=O)[O-])cc1)NC1N=C(c2ccccc2)c2cccc3c2N(CCC3)C1=O (racemic) [Example 8, (5R,S)-N-(keto-4-phenyl-7-hexahydro-1,2,3,3a,4,5-pyrido[3,2,1-j,k]benzodiazepine-[1,4]-yl-5)-N'-(nitro-4-phenyl-)-urea] | 0.06 µM | 1.81 µM | 3.08 µM |  |  |
| O=C1C(NC(=S)Nc2ccc(Br)cc2)N=C(c2ccccc2)c2cccc3c2N1CCC3 (racemic) [Example 10, (5R,S)-N-(keto-4-phenyl-7-hexahydro-1,2,3,3a,4,5-pyrido[3,2,1-j-k]benzodiazepine-[1,4]-yl-5)-N'-(bromo-4-phenyl-)-thiourea] | 0.0032 µM | 0.088 µM | 3.04 µM | 1.5 times | activity compared with reference compound XXa (gastrin-specific compounds) (gastrin receptor [1]; in words): similar; Gastric secretion % inhibition [4]: 31%; inhibiting activity on gastrin-induced acid secretion compared with XXa ([4]; in words): identical; ED50 [5]: 15.5 mg/kg; times more product required than XXa for 50% reduction of the inhibiting effects of CCK-8 on gastric evacuation ([5]; in comparison with XXa): 100 times |
| O=C(Nc1cnc2ccccc2c1)NC1N=C(c2ccccc2)c2cccc3c2N(CCC3)C1=O (racemic) [Example 23, (5R,S)-N-(keto-4-phenyl-7-hexahydro-1,2,3,3a,4,5-pyrido[3,2,1-j,k]benzodiazepine[1,4]-yl-5)-N'-(quinolinyl-3-)-urea] | 0.298 µM | 0.176 µM | 0.389 µM | ~60 times | higher selectivity for the CCK B receptor than XXa [6, 11]: ~30 times; factor less active on the CCK B receptor than XXa [2, 11]: 2 factor |
| O=C1C(NC(=S)Nc2ccc(Br)cc2)N=C(c2ccccc2)c2cccc3c2N1CCC3 (stereo in doubt) [Example 26, (5S)-N-(keto-4-phenyl-7-hexahydro-1,2,3,3a,4,5-pyrido[3,2,1-j,k]benzodiazepine[1,4]-yl-4)-N'-(bromo-4-phenyl-)-thiourea] | 0.036 µM | 0.137 µM | > 10 µM |  | Selectivity GASTRIN/CCK A (gastrin receptor [7]): > 250; Selectivity CCK B/CCK A [6]: > 70 |
| Cc1cccc(NC(=O)N[C@@H]2N=C(c3ccccc3)c3cccc4c3N(CC4)C2=O)c1 [Example 2, (4R)-N-(keto-3-phenyl-6-tetrahydro-1,2,3,4-pyrrolo[3,2,1-j,k]benzodiazepine-[1,4]-yl-4)-N'-(methyl-3-phenyl-)-urea] | 0.0859 µM | 0.0999 µM | 1.02 µM | 20 times | activity on the CCK B receptor compared with XXa ([2]; in words): of the same order; activity on the CCK A receptor compared with XXa ([3]; in words): of the same order |
| Cc1cccc(NC(=O)N[C@@H]2N=C(c3ccccc3)c3cccc4c3N(CCC4)C2=O)c1 [Example 7, (+)-(5R)-N-(keto-4-phenyl-7-hexahdyro-1,2,3,3a,4,5-pyrido [3,2,1-j,k]benzodiazepine[1,4]-yl-5)-N'-(methyl-3-phenyl-)-urea] | 0.0405 µM | 0.255 µM | 1.73 µM |  |  |
| Cc1cccc(NC(=O)N[C@@H]2N=C(c3ccccc3)c3ccccc3N(C)C2=O)c1 [XXa, reference compound] |  |  |  |  | CCK-A activity, term of the CCK-A/gastrin ratio [8]: 290; Selectivity GASTRIN/CCK A (gastrin receptor [7]): 302; CCK-A/gastrin activity ratio reproduced by the Applicant (times more favourable to gastrin receptors) (gastrin receptor [7]; ratio 1419/4.7): about 300 times; IC50 (gastrin receptor [1]; read-out: IC50 Receptor bond Gastrin; guinea-pig gastric glands; Table I): 0.0047 µM; gastrin activity, term of the CCK-A/gastrin ratio (gastrin receptors): 1.9; CCK-A/gastrin activity ratio (times more favourable to gastrin receptors) (gastrin receptors; ratio 290/1.9): about 150 times; Selectivity CCK B/CCK A [6]: 17; IC50 ([2]; read-out: IC50 Receptor bond CCK B; guinea-pig brain membranes; Table I): 0.0814 µM; Gastric secretion % inhibition [4]: 29%; IC50 ([3]; rat pancreas plasma membranes, Table I, read-out: IC50 Receptor bond CCK A): 1.42 µM; ED50 [5]: 0.15 mg/kg |
